Laboratory results reported in patent US10010560B2, “Small molecule HSP70 inhibitors” (THE TRUSTEES OF THE UNIVERSITY OF PENNSYLVANIA, priority 2014, dated 2018).

How the values were obtained:
[1] = test system: primary melanocytes and nontransformed human fibroblasts (IMR90); test: Cellular ATP levels (AlamarBlue assay) in normal cells; format: cell-based
Text: FIGS. 5A-5F illustrates that PET-16 leads to loss of mitochondrial protein Cyclophilin D and impairs bioenergetics in tumor cells. FIGS. 5A-5D are western blots of HSP70, which is present at mitochondria of tumor H1299 cells but not in normal tissue, such as liver. The constitutively expressed 70 kDa family members, HSC70 and GRP75, are present in mitochondria of normal cells. Equal amounts of whole cell (WC)-, cytosolic (cyto)-, and mitochondrial (mito)-extracts prepared from cell lines H1299 (A, C) and MIA PaCa-2 (B) or normal (liver) cells (C, D) were examined by western blot analysis for the presence of the proteins indicated. […] Decreases of AlamarBlue® fluorescence, indicative of mitochondrial damage, are noted in PET-16-treated tumor cells (melanoma tumor cell line WM88 (-), melanoma tumor cell line WM3000 (×), melanoma tumor cell line WM852 (*), human melanoma 451 Lu cells (●), and melanoma tumor cell line WM989 (|), but not normal cells (nontransformed human fibroblasts (IMR90-♦) and primary melanocytes (▪)). Values are normalized to the vehicle-treated cells. Error bars represent standard deviation (s.d.) of four independent experiments.

HSP70 = HSP70 (Homo sapiens, UniProt P0DMV8); test: Immunoprecipitation of HSP70 and co-precipitating proteins; format: cell-based; parameters: endogenous in cells; host or cells: A875 and 451 Lu human melanoma cells; settings: IP-WB, A875 or 451 Lu cells
Text: FIGS. 4A-4L illustrate that PET-16 impairs proteostasis. […] There is a general absence of obvious nuclei in PET-16 treated tumor cells. […] FIGS. 4D and 4E are gels of whole-cell extracts (WCE) prepared from human melanoma A875 (D) or 451 Lu (E) cells treated with DMSO, PES or PET-16 that were immunoprecipitated using an anti-HSP70 antibody. The excised band of about 70 kDa shown in the Coomassie gel is HSP70, as confirmed by liquid chromatography—tandem mass spectrometry analysis. FIGS. 4F-4I are western blots of cell lines were treated with DMSO, PES or PET-16 for 24 h and immunoblotted for the indicated proteins. FIG. 4J are western blots of indicated melanomas pretreated with DMSO, PES or PET-16, followed by treatment with IL-6. Cell extracts were immunoblotted for the proteins indicated. Inhibition of IL-6 induced STAT3 and STAT1 phosphorylation by PET-16. FIG. 4K is a western blot analysis indicating altered processing of cathepsin L from the larger precursor form to the smaller mature form in the indicated cells following PET-16 treatment for 24 h. FIG. 4L is a western blot of the human melanoma 451 Lu cells treated with DMSO, PES or PET-16 for 24 h. Cells were harvested in 1% NP40-containing lysis buffer, fractionated into detergent-soluble and detergent-insoluble preparations, and assayed by western blot for ubiquitin. […]

[2] = test system: non-transformed cells (fibroblasts, primary melanocytes); test: Viability of non-transformed cells; format: cell-based, human; settings: at concentrations that inhibit tumor cell viability
Method: (§1) FIGS. 2A-2D illustrate the cytotoxicity of PET-16 to human tumor cells and its inhibition on E. coli growth. FIG. 2A is a line graph with data obtained from MTT assays of human melanoma cell lines treated with the indicated concentrations of PES or PET-16 for 72 h. The corresponding cell survival is normalized to vehicle (DMSO) treatment. Average and standard deviation (s.d.) from three independent experiments are shown. FIG. 2B are bar graphs of human melanoma (A875) cells and nontransformed human (IMR90) fibroblasts that were treated with DMSO, 10 μM PES or 10 μM PET-16 for 24 h. […] FIG. 2C is a line graph illustrating the growth of E. coli DH5α treated with different concentrations of PES or PET-16 for 6 h at 43° C. Error bars represent the s.d. of four independent experiments. FIG. 2D is a bar graph illustrating the growth of E. coli DH5α treated with DMSO, 30 μM PET-16 or 30 μM TPP for 6 h at 43° C. Error bars represent the s.d. of four independent experiments.

[3] = test system: human melanoma (A875) cells; test: Viability of A875 melanoma cells versus IMR90 fibroblasts; format: cell-based; settings: 10 μM, 24 h, A875 vs IMR90
Method: as §1

BRAF(V600E) = test: Western blot of client proteins in soluble and detergent-insoluble fractions; format: cell-based; settings: melanoma tumor cells, soluble fraction
Method: PET-16 promotes the loss of HSP90/HSP70 client proteins from the soluble fraction and the accumulation of some of these client proteins in the protein detergent-insoluble cellular fraction. Human melanoma cell lines (451 Lu, 1205 Lu and WM852) and mouse melanoma cell line (Yumm), as indicated, were treated with DMSO, PES or PET-16 for 24 hours. Cells were fractionated into detergent-soluble and detergent-insoluble preparations and assayed by Western blot (WB) analysis for the proteins indicated. […] The expression of many of these proteins is reduced in the soluble cell fractions, and often the abundance increases in the detergent insoluble fractions. This is indicative of loss of function of the client proteins.
Western blotting, immunoprecipitations and B-PES pull down assays were performed as described in Leu 2009 and Leu 2011. Preparation of biotin-conjugated PES was described in Leu 2009 and Leu 2011; Balaburski, 2013. Liquid chromatography-tandem mass spectrometry was performed by the Genomics Institute and Abramson Cancer Center Proteomics Core Facility at the Perelman School of Medicine, University of Pennsylvania. Electron microscopy (EM) and EM imaging were performed by The Electron Microscopy Resource Laboratory, Biomedical Research Core Facilities, at the Perelman School of Medicine, University of Pennsylvania.

Sequence of HSP70 (P0DMV8 whole entry): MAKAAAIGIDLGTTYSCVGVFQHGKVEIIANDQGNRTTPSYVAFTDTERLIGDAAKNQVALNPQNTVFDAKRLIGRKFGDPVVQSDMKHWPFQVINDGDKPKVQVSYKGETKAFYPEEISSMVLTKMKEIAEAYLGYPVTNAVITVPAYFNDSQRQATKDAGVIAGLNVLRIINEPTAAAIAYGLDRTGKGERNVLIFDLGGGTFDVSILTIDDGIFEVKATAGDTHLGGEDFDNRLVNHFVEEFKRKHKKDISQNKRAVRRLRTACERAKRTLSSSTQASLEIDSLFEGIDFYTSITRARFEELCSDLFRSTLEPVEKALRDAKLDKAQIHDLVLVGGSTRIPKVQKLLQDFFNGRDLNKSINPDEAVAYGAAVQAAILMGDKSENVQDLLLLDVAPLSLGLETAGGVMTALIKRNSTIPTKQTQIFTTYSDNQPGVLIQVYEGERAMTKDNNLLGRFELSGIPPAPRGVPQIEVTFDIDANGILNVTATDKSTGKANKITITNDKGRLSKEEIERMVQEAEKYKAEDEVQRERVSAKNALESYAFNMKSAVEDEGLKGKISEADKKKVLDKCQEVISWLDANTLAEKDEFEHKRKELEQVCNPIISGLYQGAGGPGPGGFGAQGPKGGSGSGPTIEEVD

Question: With `C(#C[P+](c1ccccc1)(c1ccccc1)c1ccccc1)c1ccccc1.[Br-]` [PET-16, triphenyl(phenylethynyl)phosphonium bromide] as the compound, how does the “total ATP levels” value [1] read?
Answer: Its value is “no decrease”.

Question: What about the “interactions between HSP70 and client/substrate proteins” value (HSP70) of the same compound?
Answer: The value was “loss of interactions”.

Question: What about the “effect on viability of non-transformed cells” value [2] of the same compound?
Answer: Its value is “little effect”.

Question: What about the “cytotoxicity tumor versus nontransformed cells” value [3] of the same compound?
Answer: The value was “preferentially cytotoxic for tumor cells”.

Question: And the “BRAF(V600E) protein abundance” value (BRAF(V600E))?
Answer: Its value is “reduction”.
